Data from patent publication US20230085307A1, “PYRIDAZINONE COMPOUND AND HERBICIDE” (NISSAN CHEMICAL CORPORATION, priority 2019, published 2023).

Tests used:
oval-leafed pondweed = experiment: Test Example 1: herbicidal activity, application before weed generation under submerged conditions (Table 16, symbol C); format: in vivo, oval-leafed pondweed (Monochoria vaginalis); conditions: amount of applied herbicide 320 g/ha
How it was run: (§1)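 Emulsion formulation, water-diluted to set dose, was put onto the flooded surface (4 cm depth, alluvial soil) the same day weeds were sown and 2.5-leaf rice transplanted. After 3 weeks at 25-30 °C under glass, each species was rated 0 (≤5% kill) to 5 (≥90% kill).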

Japanese bulrush [1] = experiment: Test Example 1: herbicidal activity, application before weed generation under submerged conditions (Table 16, symbol B); format: in vivo, Japanese bulrush (Schoenoplectus juncoides); conditions: amount of applied herbicide 320 g/ha
How it was run: as §1

southern crabgrass [2] = experiment: Test Example 5: herbicidal effect by foliage application, plastic box (Table 20, symbol F); format: in vivo, southern crabgrass (Digitaria ciliaris); conditions: foliage application, 320 g/ha, three weeks after application
How it was run: (§2)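 Foliar spray test: emulsion formulation diluted in water to a set application rate, sprayed onto 14-day-old plants raised in diluvial soil at 25° C to 30° C under glass. Both herbicidal effect and crop effect rated visually three weeks later.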

persian speedwell [3] = experiment: Test Example 5: herbicidal effect by foliage application, plastic box (Table 20, symbol R); format: in vivo, Persian speedwell (Veronica persica); conditions: foliage application, 320 g/ha, three weeks after application
How it was run: as §2

blackgrass [4] = experiment: Test Example 5: herbicidal effect by foliage application, plastic box (Table 20, symbol J); format: in vivo, blackgrass (Alopecurus myosuroides); conditions: foliage application, 320 g/ha, three weeks after application
How it was run: as §2

wild oat = experiment: Test Example 4: herbicidal effect by soil treatment (Table 19, symbol I); format: in vivo, wild oat (Avena fatua); conditions: amount of applied herbicide 320 g/ha
How it was run: (§3)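 Step 1: sow seeds in sterilized diluvial soil, cover ~1.5 cm. Step 2: spray diluted emulsion onto soil surface at predetermined rate. Step 3: greenhouse, 25–30° C, three weeks. Step 4: grade effect on each plant by earlier criteria.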

Italian ryegrass [5] = experiment: Test Example 5: herbicidal effect by foliage application, plastic box (Table 20, symbol K); format: in vivo, Italian ryegrass (Lolium multiflorum); conditions: foliage application, 320 g/ha, three weeks after application
How it was run: as §2

Japanese bulrush [6] = experiment: Test Example 2: herbicidal activity, application during weed generation under submerged conditions (Table 17, symbol B); format: in vivo, Japanese bulrush (Schoenoplectus juncoides); conditions: AAH 320 g/ha; application during weed generation, submerged conditions
How it was run: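 Alluvial soil in Wagner pots was flooded to 4 cm depth and sown with the three weeds together; pots were kept in a greenhouse at 25° C. to 30° C. At the one to two leaf stage, an emulsion formulation diluted in water to a set rate went onto the water surface; scored three weeks later.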

rice flat sedge = experiment: Test Example 3: herbicidal effect by foliage application, Wagner pot (Table 18, symbol E); format: in vivo, rice flat sedge (Cyperus iria); conditions: for herbicidal effect on rice flat sedge (E): 320 g/ha; for Herbicidal effect on E (rice flat sedge), foliage application: amount of applied herbicide 320 g/ha
How it was run: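 Plants were sown in alluvial soil held under 0.1–0.5 cm standing water and grown 14 days in a greenhouse at 25–30 °C. An emulsifiable formulation, water-diluted to the set dose, was then sprayed onto the foliage, and effects were scored three weeks later using previously defined criteria.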

chickweed [7] = experiment: Test Example 4: herbicidal effect by soil treatment (Table 19, symbol P); format: in vivo, common chickweed (Stellaria media); conditions: amount of applied herbicide 320 g/ha
How it was run: as §3

chickweed [8] = experiment: Test Example 5: herbicidal effect by foliage application, plastic box (Table 20, symbol P); format: in vivo, common chickweed (Stellaria media); conditions: foliage application, 320 g/ha, three weeks after application
How it was run: as §2

southern crabgrass [9] = experiment: Test Example 4: herbicidal effect by soil treatment (Table 19, symbol F); format: in vivo, southern crabgrass (Digitaria ciliaris); conditions: amount of applied herbicide 320 g/ha
How it was run: as §3

persian speedwell [10] = experiment: Test Example 4: herbicidal effect by soil treatment (Table 19, symbol R); format: in vivo, Persian speedwell (Veronica persica); conditions: amount of applied herbicide 320 g/ha
How it was run: as §3

barnyard grass = experiment: Test Example 4: herbicidal effect by soil treatment (Table 19, symbol H); format: in vivo, barnyard grass (Echinochloa crus-galli); conditions: amount of applied herbicide 320 g/ha
How it was run: as §3

Italian ryegrass [11] = experiment: Test Example 4: herbicidal effect by soil treatment (Table 19, symbol K); format: in vivo, Italian ryegrass (Lolium multiflorum); conditions: amount of applied herbicide 320 g/ha
How it was run: as §3

lambsquarters = experiment: Test Example 4: herbicidal effect by soil treatment (Table 19, symbol O); format: in vivo, lambsquarters (Chenopodium album); conditions: amount of applied herbicide 320 g/ha
How it was run: as §3

blackgrass [12] = experiment: Test Example 4: herbicidal effect by soil treatment (Table 19, symbol J); format: in vivo, blackgrass (Alopecurus myosuroides); conditions: amount of applied herbicide 320 g/ha
How it was run: as §3

SMILES	Herbicidal effect, C: oval-leafed pondweed (oval-leafed pondweed)	Herbicidal effect, B: Japanese bulrush (Japanese bulrush [1])	F: southern crabgrass, herbicidal effect grade (southern crabgrass [2])	R: persian speedwell, herbicidal effect grade (persian speedwell [3])	J: blackgrass, herbicidal effect grade (blackgrass [4])	I: wild oat, herbicidal effect grade (wild oat)	K: Italian ryegrass, herbicidal effect grade (Italian ryegrass [5])	herbicidal effect rating, B: Japanese bulrush (Japanese bulrush [6])	herbicidal effect on rice flat sedge (E) (rice flat sedge)	P: chickweed, herbicidal effect grade (chickweed [7])	P: chickweed, herbicidal effect grade (chickweed [8])	F: southern crabgrass, herbicidal effect grade (southern crabgrass [9])	R: persian speedwell, herbicidal effect grade (persian speedwell [10])	H: barnyard grass, herbicidal effect grade (barnyard grass)	K: Italian ryegrass, herbicidal effect grade (Italian ryegrass [11])	O: lambsquarters, herbicidal effect grade (lambsquarters)	herbicidal effect on southern crabgrass (F) (southern crabgrass [2])	herbicidal effect on persian speedwell (R) (persian speedwell [3])	herbicidal effect on blackgrass (J) (blackgrass [4])	herbicidal effect on Italian ryegrass (K) (Italian ryegrass [5])	other results
C=CCOc1ccc2c(-c3c(O)c(C)nn(C)c3=O)c(-c3ccccc3OC)sc2c1 [3-111]	5 (Herbicidal rate of 90% or more (almost completely withered))	5 (Herbicidal rate of 90% or more (almost completely withered))	5 (Herbicidal rate of 90% or more (almost completely withered))	5 (Herbicidal rate of 90% or more (almost completely withered))	5 (Herbicidal rate of 90% or more (almost completely withered))	3 (Herbicidal rate of 40% or more and less than 70%)	5 (Herbicidal rate of 90% or more (almost completely withered))	3 (Herbicidal rate of 40% or more and less than 70%)	5 (Herbicidal rate of 90% or more (almost completely withered))	3 (Herbicidal rate of 40% or more and less than 70%)	5 (Herbicidal rate of 90% or more (almost completely withered))	5 (Herbicidal rate of 90% or more (almost completely withered))	5 (Herbicidal rate of 90% or more (almost completely withered))	4 (Herbicidal rate of 70% or more and less than 90%)	5 (Herbicidal rate of 90% or more (almost completely withered))	5 (Herbicidal rate of 90% or more (almost completely withered))	–	–	–	–	–
COc1ccccc1-c1sc2cc(OCC3CCCO3)ccc2c1-c1c(O)c(C)nn(C)c1=O (centres unmarked) [3-133]	4 (Herbicidal rate of 70% or more and less than 90%)	3 (Herbicidal rate of 40% or more and less than 70%)	4 (Herbicidal rate of 70% or more and less than 90%)	5 (Herbicidal rate of 90% or more (almost completely withered))	5 (Herbicidal rate of 90% or more (almost completely withered))	–	5 (Herbicidal rate of 90% or more (almost completely withered))	3 (Herbicidal rate of 40% or more and less than 70%)	5 (Herbicidal rate of 90% or more (almost completely withered))	–	5 (Herbicidal rate of 90% or more (almost completely withered))	–	–	–	–	–	–	–	–	–	Herbicidal effect by soil treatment, I: wild oat (wild oat): 1 (Herbicidal rate of 5% or more and less than 20%); Herbicidal effect by soil treatment, J: blackgrass (blackgrass [12]): 3 (Herbicidal rate of 40% or more and less than 70%); Herbicidal effect by soil treatment, P: chickweed (chickweed [7]): 4 (Herbicidal rate of 70% or more and less than 90%); Herbicidal effect by soil treatment, F: southern crabgrass (southern crabgrass [9]): 2 (Herbicidal rate of 20% or more and less than 40%); Herbicidal effect by soil treatment, H: barnyard grass (barnyard grass): 1 (Herbicidal rate of 5% or more and less than 20%); Herbicidal effect by soil treatment, K: Italian ryegrass (Italian ryegrass [11]): 5 (Herbicidal rate of 90% or more (almost completely withered)); Herbicidal effect by soil treatment, O: lambsquarters (lambsquarters): 5 (Herbicidal rate of 90% or more (almost completely withered))
CSc1ccc(-c2oc3ccc(F)cc3c2-c2c(O)c(C)nn(C)c2=O)cc1 [9-037]	0 (Herbicidal rate of 5% or less (almost no effect))	0 (Herbicidal rate of 5% or less (almost no effect))	–	–	–	0 (Herbicidal rate of 5% or less (almost no effect))	–	2 (Herbicidal rate of 20% or more and less than 40%)	–	–	–	4 (Herbicidal rate of 70% or more and less than 90%)	4 (Herbicidal rate of 70% or more and less than 90%)	2 (Herbicidal rate of 20% or more and less than 40%)	5 (Herbicidal rate of 90% or more (almost completely withered))	2 (Herbicidal rate of 20% or more and less than 40%)	4 (Herbicidal rate of 70% or more and less than 90%)	5 (Herbicidal rate of 90% or more (almost completely withered))	2 (Herbicidal rate of 20% or more and less than 40%)	5 (Herbicidal rate of 90% or more (almost completely withered))	Herbicidal effect on E (rice flat sedge), foliage application (rice flat sedge): 5 (Herbicidal rate of 90% or more (almost completely withered)); J: blackgrass, herbicidal effect grade (blackgrass [12]): 0 (Herbicidal rate of 5% or less (almost no effect))
COc1ccccc1-c1sc2c(Cl)c(OC)ccc2c1-c1c(O)c(C)nn(C)c1=O [Compound No. 7-001, 4-(7-chloro-6-methoxy-2-(2-methoxyphenyl)benzo[b]thiophen-3-yl)-5-hydroxy-2,6-dimeth ylpyridazin-3-(2H)-one]	2 (Herbicidal rate of 20% or more and less than 40%)	3 (Herbicidal rate of 40% or more and less than 70%)	–	–	–	0 (Herbicidal rate of 5% or less (almost no effect))	–	3 (Herbicidal rate of 40% or more and less than 70%)	–	5 (Herbicidal rate of 90% or more (almost completely withered))	–	0 (Herbicidal rate of 5% or less (almost no effect))	5 (Herbicidal rate of 90% or more (almost completely withered))	3 (Herbicidal rate of 40% or more and less than 70%)	3 (Herbicidal rate of 40% or more and less than 70%)	5 (Herbicidal rate of 90% or more (almost completely withered))	0 (Herbicidal rate of 5% or less (almost no effect))	5 (Herbicidal rate of 90% or more (almost completely withered))	4 (Herbicidal rate of 70% or more and less than 90%)	5 (Herbicidal rate of 90% or more (almost completely withered))	Herbicidal effect on E (rice flat sedge), foliage application (rice flat sedge): 4 (Herbicidal rate of 70% or more and less than 90%)
